Data taken from article PMC3483484 (The Protein Journal, 2012).

Tests used:
[1] = set-up: method as in earlier work; conditions: cited from earlier work
[2] = target: T1, human serum albumin (HSA) (Homo sapiens, UniProt P02768); assay: Equilibrium dialysis: individual and simultaneous binding (displacement) of 6-MP and site I markers to HSA
T1 construct: Human serum albumin (HSA), fraction V, crystallized and lyophilized; purchased Biomed (Lublin, Poland)
Method: Equilibrium dialysis experiment was performed with bags of 5 cm length made from cellulose tubing, 25 mm diameter when inflated (Dialysis Tubing Cellulose Membranes with molecular weight cut-off of 12 kDa, Sigma Aldrich Co). […] The tubes were closed with parafilm, and were stirred constantly at 20 rotations per minute, at 23 °C. A solution of drug(s) in the compartment B and a solution of albumin in the compartment A were allowed to equilibrate. […] The volumes of the solutions in two compartments remained constant during the dialysis procedure and were not corrected. […] Dialysis with each ligand or mixture of ligands was performed in fivefold and the average value of C b was used as binding data. Protein concentration was 1 × 10^−5 M and ligands concentration was 0.8 × 10^−5 M.
The free-ligands concentrations in compartment B at the beginning of the dialysis and after equilibrium were determined by HPLC. […] A column of LiChrospher 100 RP-18 (5 μm in 4 × 250 mm) (Merck KGaA) was used as the stationary phase. […] All solvents were filtered and degassed prior to use. The injection volume was 50 μL in all the cases. The free ligand concentration was determined using a calibration curve obtained from the concentration of dialyzed ligand in the absence of albumin.
The bound ligand concentration (Cb) was calculated by estimation of free-ligand concentration (Cf) according to the equation [57]:1 [drawing 3] where CL(b) was concentration of bound ligand, CL(f) was final concentration of ligand in buffer compartment and CL(0) was starting concentration of ligand (total ligand concentration before equilibrium dialysis).
The percent binding before and after displacement was compared by using a two-way analysis of variance for balanced data. The confidence intervals based on the residual variance were computed for each pairs of bound fraction before and after displacement.

HSA = conditions: data from the literature ref 32; cited from earlier work

T1 sequence (P02768 25-609): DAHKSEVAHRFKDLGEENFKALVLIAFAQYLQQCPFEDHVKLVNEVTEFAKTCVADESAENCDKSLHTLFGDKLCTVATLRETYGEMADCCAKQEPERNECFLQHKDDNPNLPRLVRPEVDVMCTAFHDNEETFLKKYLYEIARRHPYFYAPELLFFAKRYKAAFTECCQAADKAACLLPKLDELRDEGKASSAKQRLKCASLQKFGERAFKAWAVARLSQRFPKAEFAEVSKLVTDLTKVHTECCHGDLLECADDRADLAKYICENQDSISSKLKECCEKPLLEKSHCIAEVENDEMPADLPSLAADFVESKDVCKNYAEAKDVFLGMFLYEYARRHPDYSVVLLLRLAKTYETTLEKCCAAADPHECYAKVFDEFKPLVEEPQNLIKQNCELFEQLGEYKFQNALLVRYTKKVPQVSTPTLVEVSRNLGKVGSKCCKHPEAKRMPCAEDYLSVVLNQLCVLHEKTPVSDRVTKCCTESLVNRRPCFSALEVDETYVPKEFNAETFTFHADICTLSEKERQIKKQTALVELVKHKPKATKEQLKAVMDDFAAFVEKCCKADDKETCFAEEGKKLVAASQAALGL

| SMILES | bound to serum proteins ([1]; humans, of the administered dose ref 39) | half-life in plasma ([1]; oral dose, humans ref 39) [min] | decrease of free fraction (Δ%) of ABE ([2]; by addition of 6-MP, versus ABE alone, p < 0.05) [%] | Kd ([2]; from fb by Eq. (6), before displacement, HSA 1 × 10^−5 M, read-out: Primary association constant log Kexp^HSA (converted)) [µM] | Bound ligand fraction (fb%) before displacement ([2]; individual binding, HSA 1 × 10^−5 M, ligand 0.8 × 10^−5 M, pH 7.4, 23 °C) [%] | Bound ligand fraction (fb%) of site marker after displacement ([2]; simultaneous binding, in presence of 6-MP, HSA 1 × 10^−5 M, ligands 0.8 × 10^−5 M) [%] | Primary association constant log Klit^HSA (HSA) |
| --- | --- | --- | --- | --- | --- | --- | --- |
| Sc1ncnc2nc[nH]c12 [6-MP, 6-Mercaptopurine] | approximately 19% | 20 to 45 | – | – | – | – | – |
| CCCCOC(=O)c1ccc(N)cc1 [ABE, n-butyl p-aminobenzoate] | – | – | 3.5 | 17 | 37.3 ± 0.7 | 39.5 ± 0.6 | 4.45 |
